From patent US20210387966A1, “2-AMINO-N-HETEROARYL-NICOTINAMIDES AS NAV1.8 INHIBITORS” (Merck Sharp & Dohme Corp., priority 2018, published 2021) come the findings set out here.

Molecules are shown by their SMILES.

T1 sequence (Q9Y5Y9 whole entry): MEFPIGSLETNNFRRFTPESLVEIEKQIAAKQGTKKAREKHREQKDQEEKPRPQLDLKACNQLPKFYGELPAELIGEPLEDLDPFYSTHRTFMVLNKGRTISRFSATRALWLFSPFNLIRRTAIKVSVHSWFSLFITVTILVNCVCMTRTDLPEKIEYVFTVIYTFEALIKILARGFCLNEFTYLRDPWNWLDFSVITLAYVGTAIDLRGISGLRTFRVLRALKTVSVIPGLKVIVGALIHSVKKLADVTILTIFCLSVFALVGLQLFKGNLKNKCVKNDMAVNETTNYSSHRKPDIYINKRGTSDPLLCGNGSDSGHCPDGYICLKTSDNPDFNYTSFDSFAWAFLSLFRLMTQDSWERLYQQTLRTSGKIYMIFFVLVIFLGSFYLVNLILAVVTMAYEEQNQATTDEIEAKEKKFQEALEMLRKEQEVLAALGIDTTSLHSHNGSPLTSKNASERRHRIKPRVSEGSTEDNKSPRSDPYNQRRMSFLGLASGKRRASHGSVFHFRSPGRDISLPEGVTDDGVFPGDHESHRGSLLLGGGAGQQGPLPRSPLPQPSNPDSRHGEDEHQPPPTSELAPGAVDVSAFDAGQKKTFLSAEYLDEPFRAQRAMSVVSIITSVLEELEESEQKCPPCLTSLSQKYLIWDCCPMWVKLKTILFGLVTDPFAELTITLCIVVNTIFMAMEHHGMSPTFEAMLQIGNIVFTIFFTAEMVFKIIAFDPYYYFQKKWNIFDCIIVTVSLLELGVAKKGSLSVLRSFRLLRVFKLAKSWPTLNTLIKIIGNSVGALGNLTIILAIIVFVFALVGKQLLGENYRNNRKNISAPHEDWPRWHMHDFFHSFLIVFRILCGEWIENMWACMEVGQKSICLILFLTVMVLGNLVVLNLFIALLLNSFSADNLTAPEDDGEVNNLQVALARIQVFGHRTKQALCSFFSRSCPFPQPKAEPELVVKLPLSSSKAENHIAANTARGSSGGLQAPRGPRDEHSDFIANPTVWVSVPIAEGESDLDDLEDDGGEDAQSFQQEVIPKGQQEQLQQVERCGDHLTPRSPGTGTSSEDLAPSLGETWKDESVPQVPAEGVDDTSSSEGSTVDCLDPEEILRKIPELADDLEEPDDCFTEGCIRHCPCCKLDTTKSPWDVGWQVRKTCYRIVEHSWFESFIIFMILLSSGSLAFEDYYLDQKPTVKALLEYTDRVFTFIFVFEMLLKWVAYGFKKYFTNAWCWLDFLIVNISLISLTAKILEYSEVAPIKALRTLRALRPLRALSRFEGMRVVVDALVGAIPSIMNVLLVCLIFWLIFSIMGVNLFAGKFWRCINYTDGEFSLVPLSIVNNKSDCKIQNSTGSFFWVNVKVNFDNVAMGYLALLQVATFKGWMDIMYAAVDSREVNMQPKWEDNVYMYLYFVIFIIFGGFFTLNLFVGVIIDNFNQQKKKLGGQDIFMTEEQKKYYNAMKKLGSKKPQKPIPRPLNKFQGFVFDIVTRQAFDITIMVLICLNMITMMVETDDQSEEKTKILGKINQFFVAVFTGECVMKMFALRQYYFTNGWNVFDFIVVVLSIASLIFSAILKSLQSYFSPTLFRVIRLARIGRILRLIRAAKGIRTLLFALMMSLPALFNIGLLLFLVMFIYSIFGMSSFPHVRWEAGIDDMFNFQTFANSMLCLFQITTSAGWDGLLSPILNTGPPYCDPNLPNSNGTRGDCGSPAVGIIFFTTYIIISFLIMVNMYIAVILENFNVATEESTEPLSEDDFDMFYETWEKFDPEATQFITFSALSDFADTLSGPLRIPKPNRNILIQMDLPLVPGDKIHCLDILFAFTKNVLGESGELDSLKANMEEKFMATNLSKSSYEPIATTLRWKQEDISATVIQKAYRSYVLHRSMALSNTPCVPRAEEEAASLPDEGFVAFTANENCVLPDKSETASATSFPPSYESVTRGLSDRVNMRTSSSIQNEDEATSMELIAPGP

The assay addresses T1, human Nav1.8 channels (Homo sapiens, UniProt Q9Y5Y9).
T1 construct: expressed in transfected cells
The assay can be described thus: Nav1.8 Qube automated patch-clamp assay. The class given is cell-based. Particulars: human Nav1.8 stably expressed in HEK 293 cells; whole-cell voltage clamp, room temperature; resting or inactivated state not specified; read-out: IC50 values (nM) for Examples in the Nav1.8 Qube Assay. The gist of the method:
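Whole-cell patch clamp at room temperature on HEK293 cells stably expressing human Nav1.8. A 1 Hz train of ten 20 ms pulses to 10 mV from −90 mV holding, with −67 mV repolarization, was applied; first- and tenth-pulse peak currents gave resting and inactivated-state IC50s by Hill fitting.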
For the compound `CC1CN(c2ncc(C(F)(F)F)cc2C(=O)Nc2ccnc(S(N)(=O)=O)c2)CCC(C(F)(F)F)O1` (single isomer, unassigned) [Example 120, 2-[(2S,7R or 2R,7S)-2-methyl-7-(trifluoromethyl)-1,4-oxazepan-4-yl]-N-(2-sulfamoylpyridin-4-yl)-5-(trifluoromethyl)pyridine-3-carboxamide], the IC50 amounted to 2.9 nM. With `COc1cc(NC(=O)c2cc(C(F)(F)F)cnc2N2CCC3(CC2)CC3)ccn1` [Example 143, N-(2-methoxypyridin-4-yl)-2-(6-azaspiro[2.5]octan-6-yl)-5-(trifluoromethyl)-nicotinamide] the figure was 1540 nM; with `N#CC1CCN(c2ncc(C(F)(F)F)cc2C(=O)Nc2ccnc(S(N)(=O)=O)c2)C1` (single isomer, unassigned) [Example 129, (S or R)-2-(3-cyanopyrrolidin-1-yl)-N-(2-sulfamoylpyridin-4-yl)-5-(trifluoromethyl)nicotinamide], 753 nM; with `CC1CCCN(c2ncc(C(F)(F)F)cc2C(=O)Nc2ccnc(S(N)(=O)=O)c2)C1` (single isomer, unassigned) [Example 56, (S or R)-2-(3-methylpiperidin-1-yl)-N-(2-sulfamoylpyridin-4-yl)-5-(trifluoromethyl)nicotinamide], 9.1 nM. On to `Cc1nc(N2CCCCCC2)c(C(=O)Nc2cncc(S(N)(=O)=O)c2)c(C)c1Cl` [Example 188, 2-(azepan-1-yl)-5-chloro-4,6-dimethyl-N-(5-sulfamoyl-3-pyridyl)pyridine-3-carboxamide], for which the IC50 is 5.9 nM. As for `NS(=O)(=O)c1cc(NC(=O)c2cnc(C3CC3)nc2N2CCCC(F)(F)CC2)ccn1` [Example 38, 2-cyclopropyl-4-(4,4-difluoroazepan-1-yl)-N-(2-sulfamoylpyridin-4-yl)pyrimidine-5-carboxamide], the IC50 stood at 24 nM.

In the case of `Cc1ncc(C(=O)Nc2ccnc(S(N)(=O)=O)c2)c(N2CCCC(F)(F)CC2)n1` [Example 173, 4-(4,4-difluoroazepan-1-yl)-2-methyl-N-(2-sulfamoylpyridin-4-yl)pyrimidine-5-carboxamide], the IC50 was determined as 199 nM. Next, `Cc1nc(C2CCCCCC2)c(C(=O)Nc2ccnc(S(N)(=O)=O)c2)c(C)c1Cl` [Example 217, 5-chloro-2-cycloheptyl-4,6-dimethyl-N-(2-sulfamoylpyridin-4-yl)nicotinamide]: 3.2 nM; `COc1cc(NC(=O)c2c(N3CCCCCC3)nc(C)c(Cl)c2C)ccn1` [Example 187, 2-(azepan-1-yl)-5-chloro-N-(2-methoxy-4-pyridyl)-4,6-dimethyl-pyridine-3-carboxamide]: 141 nM. As for `O=C(Nc1nccc(O)n1)c1cc(C(F)(F)F)cnc1N1CCC(F)(F)CC1` [Example 2, 2-(4,4-difluoropiperidin-1-yl)-N-(4-hydroxypyrimidin-2-yl)-5-(trifluoromethyl)nicotinamide], the IC50 is 2190 nM.

Regarding `CC1CN(c2nc(C(F)(F)F)ccc2C(=O)Nc2ccnc(S(N)(=O)=O)c2)CCC1(F)F` (single isomer, unassigned) [Example 163, (S or R)-2-(4,4-difluoro-3-methylpiperidin-1-yl)-N-(2-sulfamoylpyridin-d-yl)-6-(trifluoromethyl)nicotinamide], the IC50 came to 10 nM. With `NS(=O)(=O)c1cc(NC(=O)c2cc(C(F)(F)F)cnc2N2CCN(CC(F)(F)F)CC2)ccn1` [Example 100, N-(2-sulfamoyl-4-pyridyl)-2-[4-(2,2,2-trifluoroethyl)piperazin-1-yl]-5-(trifluoromethyl)pyridine-3-carboxamide] the figure was 4630 nM; with `NS(=O)(=O)c1cc(NC(=O)c2cc(C(F)(F)F)cnc2N2CCCO[C@@H](C(F)(F)F)C2)ccn1` [Example 105, (R)-N-(2-sulfamoylpyridin-4-yl)-5-(trifluoromethyl)-2-(2-(trifluoromethyl)-1,4-oxazepan-4-yl)nicotinamide], 696 nM.

With `NS(=O)(=O)c1cc(NC(=O)c2cc(C(F)(F)F)cnc2N2CC3CCC3(C(F)(F)F)C2)ccn1` (single isomer, unassigned) [Example 58, N-(2-sulfamoyl-4-pyridyl)-5-(trifluoromethyl)-2-[(1S,5S or 1R,5R)-1-(trifluoromethyl)-3-azabicyclo[3.2.0]heptan-3-yl]pyridin-3-carboxamide], the IC50 turned out to be 10 nM. With `Cc1ccc(C(=O)Nc2ccnc(S(N)(=O)=O)c2)c(N2CCCC(F)(F)C(F)C2)n1` (stereo not shown) [Example 40, 6-methyl-N-(2-sulfamoylpyridin-4-yl)-2-(3,4,4-trifluoroazepan-1-yl)nicotinamide] the figure was 4.1 nM; with `Cc1nc(C2CCC(F)(F)CC2)c(C(=O)Nc2ccnc(S(N)(=O)=O)c2)c(C)c1Cl` [Example 218, 5-chloro-2-(4,4-difluorocyclohexyl)-4,6-dimethyl-N-(2-sulfamoylpyridin-4-yl)nicotinamide], 2.4 nM; with `CS(=O)(=O)n1nc(NC(=O)c2cc(C(F)(F)F)cnc2N2CCCC(F)(F)CC2)c2ccccc21` [Example 34, 2-(4,4-difluoroazepan-1-yl)-N-[1-(methylsulfonyl)-1H-indazol-3-yl]-5-(trifluoromethyl)pyridine-3-carboxamide], 50 nM. For the compound `NS(=O)(=O)c1cc(NC(=O)c2ccc(C3CCC3)nc2N2CCCC(F)(F)CC2)ccn1` [Example 24, 6-cyclobutyl-2-(4,4-difluoroazepan-1-yl)-N-(2-sulfamoylpyridin-4-yl)nicotinamide], the IC50 came out at 2.1 nM.

As to `CC1CN(c2nc(C(F)(F)F)c(Cl)cc2C(=O)Nc2ccnc(S(N)(=O)=O)c2)CCC1(F)F` (single isomer, unassigned) [Example 164, (S or R)-5-chloro-2-(4,4-difluoro-3-methylpiperidin-1-yl)-N-(2-sulfamoylpyridin-4-yl)-6-(trifluoromethyl)nicotinamide], the IC50 is 3.3 nM.

As to `NS(=O)(=O)c1cc(NC(=O)c2cc(C(F)(F)F)cnc2N2CC3CC2CC3(F)F)ccn1` (single isomer, unassigned) [Example 72, 2-[(1S,4S or 1R,4R)-5,5-difluoro-2-azabicyclo[2.2.1]heptan-2-yl]-N-(2-sulfamoyl-4-pyridyl)-5-(trifluoromethyl)pyridine-3-carboxamide], the IC50 turned out to be 714 nM. For the compound `CC1CN(c2ncc(C(F)(F)F)cc2C(=O)Nc2ccnc(S(N)(=O)=O)c2)CCC1(Cl)Cl` (single isomer, unassigned) [Example 49, (R or S)-2-(4,4-dichloro-3-methylpiperidin-1-yl)-N-(2-sulfamoylpyridin-4-yl)-5-(trifluoromethy)nicotinamide], the IC50 was 1.4 nM.

As to `NS(=O)(=O)c1cc(NC(=O)c2cc(C(F)(F)F)cnc2N2CCC(c3ccc(C(F)(F)F)cc3)C2)ccn1` (stereo not shown) [Example 85, N-(2-sulfamoyl-4 pyridyl)-5-(trifluoromethyl)-2-[3-[4-(trifluoromethyl)phenyl]pyrrolidin-1-yl]pyridine-3-carboxamide], the IC50 came to 152 nM. With `CC1(C)CN(c2ncc(C(F)(F)F)cc2C(=O)Nc2ccnc(S(N)(=O)=O)c2)CCCO1` [Example 107, 2-(2,2-dimethyl-1,4-oxazepan-4-yl)-N-(2-sulfamoyl-4-pyridyl)-5-(trifluoromethyl)pyridine-3-carboxamide] the figure was 139 nM; with `O=C(O)c1cc(NC(=O)c2cc(C(F)(F)F)cnc2N2CCC(F)(F)CC2)ccn1` [Example 4, 4-(2-(4,4-difluoropiperidin-1-yl)-5-(trifluoromethyl)nicotinamido)picolinic acid], 5430 nM; with `NS(=O)(=O)c1cc(NC(=O)c2cc(N3CCCCC3)cnc2N2CCC(F)(F)CC2)ccn1` [Example 206, 2-(4,4-difluoropiperidin-1-yl)-5-(piperidin-1-yl)-N-(2-sulfamoylpyridin-4-yl)nicotinamide], 363 nM. On to `C[C@@H]1CN(c2ncc(C(F)(F)F)cc2C(=O)Nc2ccnc(C#N)c2)C[C@H](C)C1(F)F` [Example 150, N-(2-cyano-4-pyridyl)-2-[(3S,5R)-4,4-difluoro-3,5-dimethyl-1-piperidyl]-5-(tri-fluoromethyl)pyridine-3-carboxamide], for which the IC50 was 77 nM.

Regarding `Cc1nc(N2CCC(F)(F)CC2)c(C(=O)Nc2ccnc(S(N)(=O)=O)c2)cc1C(C)(C)C` [Example 180, 5-(tert-butyl)-2-(4,4-difluoropiperidin-1-yl)-6-methyl-N-(2-sulfamoylpyridin-4-yl)nicotinamide], the IC50 turned out to be 14 nM.

Consider `NS(=O)(=O)c1cc(NC(=O)c2cc(C(F)(F)F)cnc2N2CCCO[C@H](C(F)(F)F)C2)ccn1` [Example 104, (S)-N-(2-sulfamoylpyridin-4-yl)-5-(trifluoromethyl)-2-(2-(trifluoromethyl)-1,4-oxazepan-4-yl)nicotinamide], for which the IC50 was found to be 56 nM. With `NS(=O)(=O)c1cc(NC(=O)c2cc(C(F)(F)F)cnc2N2CC3CC(F)(F)C3C2)ccn1` (single isomer, unassigned) [Example 64, 2-((1R,2S or 1S,5R)-6,6-difluoro-3-azabicyclo[3.2.0]heptan-3-yl)-N-(2-sulfamoylpyridin-4-yl)-5-(trifluoromethyl)nicotinamide] the figure was 23 nM. Next, `NS(=O)(=O)c1cc(NC(=O)c2cc(C(F)(F)F)cnc2N2CC3CC2CC3(F)F)ccn1` (single isomer, unassigned) [Example 71, 2-[(1R,4R or 1S,4S)-5,5-difluoro-2-azabicyclo[2.2.1]heptan-2-yl]-N-(2-sulfamoyl-4-pyridyl)-5-(trifluoromethyl)pyridine-3-carboxamide]: 60 nM; `C[C@H]1CN(c2ncc(C(F)(F)F)cc2C(=O)Nc2ccnc(S(N)(=O)=O)c2)CCO1` [Example 110, 2-[(2S)-2-methylmorpholin-4-yl]-N-(2-sulfamoyl-4-pyridyl)-5-(trifluoromethyl)pyridine-3-carboxamide]: 505 nM.

As a reminder, the IC50 is the point on the concentration scale where inhibition reaches its midpoint.
